Data published in PMC10698194 (Nature Communications, 2023).
“And” between values parts separate entries of the source, which are not always exact repeats. Equal values may be shown once. Read-outs that look alike come from different tables or passages of the source.

Tests used:
human KOR WT [1] = target: T1, human KOR WT (Homo sapiens, UniProt P41145); assay: cAMP inhibition assay normalized to salvinorin A; format: cell-based
T1 construct: FLAG; expressed in transfected cells; host or cells: HEK293T, transient
T1 sequence (P41145 whole entry): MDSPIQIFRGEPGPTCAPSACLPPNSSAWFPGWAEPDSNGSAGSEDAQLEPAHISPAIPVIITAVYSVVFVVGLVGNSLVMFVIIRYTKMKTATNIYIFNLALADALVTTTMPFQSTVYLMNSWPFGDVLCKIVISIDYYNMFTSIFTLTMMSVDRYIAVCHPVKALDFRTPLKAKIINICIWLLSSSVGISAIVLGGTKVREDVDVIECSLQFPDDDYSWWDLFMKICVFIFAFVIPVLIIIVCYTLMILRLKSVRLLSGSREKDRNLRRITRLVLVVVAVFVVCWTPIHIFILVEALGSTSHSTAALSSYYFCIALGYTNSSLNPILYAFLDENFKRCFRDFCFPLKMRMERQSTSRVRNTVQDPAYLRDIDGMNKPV

human KOR WT [2] = target: T1, human KOR WT; format: cell-based
human KOR E209A [3] = target: T2, human KOR E209A (Homo sapiens, UniProt P41145, E209A); format: cell-based
T2 construct: FLAG; expressed in transfected cells; host or cells: HEK293 / HEK293T, transient
T2 sequence (P41145 whole entry E209A): as the sequence (P41145 whole entry) above, with E209A counted along it

human KOR E297A [4] = target: T3, human KOR E297A (Homo sapiens, UniProt P41145, E297A); format: cell-based
T3 construct: FLAG; expressed in transfected cells; host or cells: HEK293T
T3 sequence (P41145 whole entry E297A): as the sequence (P41145 whole entry) above, with E297A counted along it

human KOR L309A [5] = target: T4, human KOR L309A (Homo sapiens, UniProt P41145, L309A); format: cell-based
T4 construct: FLAG; expressed in transfected cells; host or cells: HEK293T
T4 sequence (P41145 whole entry L309A): as the sequence (P41145 whole entry) above, with L309A counted along it

human KOR WT [6] = target: T1, human KOR WT; assay: BRET β-arrestin-2 biosensor assay; format: cell-based
human KOR E209A [7] = target: T2, human KOR E209A; assay: BRET β-arrestin-2 biosensor assay; format: cell-based
human KOR E297A [8] = target: T3, human KOR E297A; assay: BRET β-arrestin-2 biosensor assay; format: cell-based
human KOR L309A [9] = target: T4, human KOR L309A; assay: BRET β-arrestin-2 biosensor assay; format: cell-based
[10] = human
Method: (§1) Blood was drawn from healthy volunteers devoid of any medication for 14 days from the antecubital vein using 21 G needles and collected in a serum clot activator tube (4 mL tubes, Greiner bio-one). […] Volunteers gave written informed consent before blood donation. […] Blood samples were collected into Vacuette® clot activator tubes (Greiner Bio-One, Austria). After clotting of about 2 h, the samples were centrifuged at 2200 × g for 15 min at 22 °C. The serum was removed and centrifuged again to remove lipids and cell particles at 16,000 × g at 4 °C for 20 min. […] The samples were incubated at 37 °C under continuous shaking at 300 rotations-per-minute. […] The samples were mixed well and incubated on ice for 10 min. For the protein precipitation, 30 µL of a 20% (w/v) trichloroacetic acid was added and incubated on ice for 15 min. The clear supernatant was harvested by centrifugation at 16,000 × g at 4 °C for 20 min and this sample was used for HPLC analysis. The chromatography HPLC system was a ThermoFisher Ultimate 3000 equipped with a pump, autosampler and single wavelength detector. […] The remaining peptide was calculated relative to the AUC at time point zero. The data points were fitted to a one-phase decay function and to determine the resulting half-life of the peptide in serum.
(§2) 0.1% trifluoroacetic acid in water and acetonitrile/water trifluoroacetic acid 90/10/0.1% (v/v/v) with a
linear separation gradient over 30 min.

in vitro = details: human, serum, serum stability, amount remaining, Figure S15
Method: as §1, §2
linear separation gradient over 30 min.

mouse KOR [11] = target: T5, mouse KOR (Mus musculus, UniProt P33534); assay: cell-based; set-up: expressed in transfected cells
Target sequence in this assay (P33534 whole entry): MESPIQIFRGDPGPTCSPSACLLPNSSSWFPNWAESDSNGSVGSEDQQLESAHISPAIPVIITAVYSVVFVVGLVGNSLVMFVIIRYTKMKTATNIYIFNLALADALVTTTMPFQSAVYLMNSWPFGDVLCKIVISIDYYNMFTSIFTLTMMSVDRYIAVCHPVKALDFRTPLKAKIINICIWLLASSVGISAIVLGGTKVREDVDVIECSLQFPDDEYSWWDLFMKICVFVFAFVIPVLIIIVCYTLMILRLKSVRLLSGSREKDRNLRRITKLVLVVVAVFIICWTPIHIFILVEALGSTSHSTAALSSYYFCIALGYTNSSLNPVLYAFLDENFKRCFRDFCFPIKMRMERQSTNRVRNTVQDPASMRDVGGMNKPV

mouse KOR [12] = target: T5, mouse KOR; assay: cell-based; set-up: expressed in transfected cells; host or cells: HEK293T, transient; details: for β-arrestin-2 recruitment, normalized: replicates
Target sequence in this assay (P33534 whole entry): as above
Target sequence in this assay (P32121 whole entry partner): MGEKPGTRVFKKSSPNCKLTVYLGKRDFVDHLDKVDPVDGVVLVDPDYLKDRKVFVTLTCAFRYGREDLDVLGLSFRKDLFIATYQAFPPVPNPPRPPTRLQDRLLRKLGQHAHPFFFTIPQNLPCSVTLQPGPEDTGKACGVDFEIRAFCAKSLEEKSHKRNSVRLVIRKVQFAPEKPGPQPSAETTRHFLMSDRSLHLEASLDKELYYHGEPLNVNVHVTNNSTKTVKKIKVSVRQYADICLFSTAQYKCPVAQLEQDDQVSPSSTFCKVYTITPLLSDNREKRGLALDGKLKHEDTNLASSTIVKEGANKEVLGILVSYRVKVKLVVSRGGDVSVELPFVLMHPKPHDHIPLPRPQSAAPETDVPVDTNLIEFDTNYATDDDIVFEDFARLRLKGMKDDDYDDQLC

human MOR = target: T6, human MOR (Homo sapiens, UniProt P35372); assay: [35S]GTPγS binding assay, CHO membranes; format: biochemical
T6 construct: expressed in transfected cells
T6 sequence (P35372 whole entry): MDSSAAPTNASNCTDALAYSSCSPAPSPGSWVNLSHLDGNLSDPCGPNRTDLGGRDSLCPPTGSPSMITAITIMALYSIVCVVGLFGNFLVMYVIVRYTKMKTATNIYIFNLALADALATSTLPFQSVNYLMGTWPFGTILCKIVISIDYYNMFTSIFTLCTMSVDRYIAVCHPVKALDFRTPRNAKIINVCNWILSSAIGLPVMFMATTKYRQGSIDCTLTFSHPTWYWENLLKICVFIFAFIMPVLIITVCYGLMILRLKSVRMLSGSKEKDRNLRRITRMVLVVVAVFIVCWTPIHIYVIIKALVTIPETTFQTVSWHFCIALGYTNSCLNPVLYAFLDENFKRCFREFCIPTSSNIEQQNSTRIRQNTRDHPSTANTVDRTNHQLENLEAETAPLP

human DOR = target: T7, human DOR (Homo sapiens, UniProt P41143); assay: [35S]GTPγS binding assay, CHO membranes; format: biochemical
T7 construct: expressed in transfected cells
T7 sequence (P41143 whole entry): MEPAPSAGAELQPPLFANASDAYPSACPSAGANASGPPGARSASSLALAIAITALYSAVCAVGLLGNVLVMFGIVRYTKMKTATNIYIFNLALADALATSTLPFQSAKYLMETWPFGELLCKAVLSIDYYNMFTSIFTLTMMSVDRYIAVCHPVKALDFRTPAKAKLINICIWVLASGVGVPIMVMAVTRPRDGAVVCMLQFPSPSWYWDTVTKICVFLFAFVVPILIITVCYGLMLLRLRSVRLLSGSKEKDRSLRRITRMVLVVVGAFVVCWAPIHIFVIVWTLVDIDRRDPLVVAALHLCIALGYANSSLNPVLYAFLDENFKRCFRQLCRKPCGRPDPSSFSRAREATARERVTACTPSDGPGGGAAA

mouse KOR [13] = target: T5, mouse KOR; assay: biochemical; format: binding; set-up: expressed in transfected cells; details: for specific [3H]DPN binding, normalized to 100%: replicates
Target sequence in this assay (P33534 whole entry): as the sequence (P33534 whole entry) above

human KOR = human KOR (Homo sapiens, UniProt P41145); assay: [35S]GTPγS binding assay, CHO membranes; format: biochemical; set-up: expressed in transfected cells; details: for stimulation of [35S]GTPγS binding, normalized: replicates
Chain of human KOR (P41145 whole entry): as the sequence (P41145 whole entry) above

## CC[C@H](C)[C@H](NC(=O)[C@H](CCCN=C(N)N)NC(=O)[C@H](CCCN=C(N)N)NC(=O)[C@H](CC(C)C)NC(=O)[C@H](Cc1ccccc1)NC(=O)CNC(=O)CNC(=O)[C@@H](N)Cc1ccc(O)cc1)C(=O)N[C@@H](CCCN=C(N)N)C(=O)N1CCC[C@H]1C(=O)N[C@@H](CCCCN)C(=O)N[C@@H](CC(C)C)C(=O)N[C@@H](CCCCN)C(N)=O [dynA1-13]
Human KOR WT [1]
  EC50: 0.00501 nM
Human KOR WT [2]
  EC50: 0.0437 nM
Human KOR E209A [3]
  EC50: 0.148 nM
Human KOR E297A [4]
  EC50: 0.204 nM
Human KOR L309A [5]
  EC50: 0.0302 nM
Human KOR WT [6]
  EC50: 0.617 nM
Human KOR E209A [7]
  EC50: 6.61 nM
Human KOR E297A [8]
  EC50: 7.94 nM
Human KOR L309A [9]
  EC50: 1.32 nM
[10]
  serum stability, amount remaining, Figure S15: 100
[10]; 40 min
  serum stability, amount remaining, Figure S15: 30
[10]; 1 h
  serum stability, amount remaining, Figure S15: 6
In vitro
  remaining at 5 min: 106%
  remaining at 10 min: 85%
  remaining at 20 min: 66%
  remaining at 40 min: 33%
  remaining at 1 h: 7%
  remaining at 2 h: 2%
  remaining at 4 h: 0%
  remaining at 6 h: 0.1%
  remaining at 24 h: 0.1%
  remaining at 48 h: 5%
Mouse KOR [11]
  EC50: 4.9 ± 1.8 nM
Mouse KOR [12]; EC50 β-arrestin-2 recruitment
  EC50: 31 nM
Mouse KOR [12]; potency (log EC50) β-arrestin-3
  EC50: 31 nM

## C=CCN1CC[C@]23c4c5ccc(O)c4O[C@H]2[C@H](N)CC[C@@]3(O)[C@H]1C5 [β-NalA, β-naloxamine]
Human MOR; Log [ligand] (M) -9
  agonist response at MOR, Figure S13a: 0.0
Human MOR; [35S]GTPγS
  EC50 (M) MOR: no stimulation up to 10 µM
Human DOR; Log [ligand] (M) -5
  agonist response at DOR, Figure S13b: 29.5 and 25.6
Human DOR; Log [ligand] (M) -5.5
  agonist response at DOR, Figure S13b: 26.4 and 22
Human DOR; Log [ligand] (M) -6.5
  agonist response at DOR, Figure S13b: 11.6 and 22.3
Human DOR; Log [ligand] (M) -7
  agonist response at DOR, Figure S13b: 11.8 and 10.9 and 6.8
Human DOR; [35S]GTPγS
  EC50 (M) DOR: no stimulation up to 10 µM
Mouse KOR [13]
  Ki: 72 nM
Mouse KOR [13]; Log [ligand] (M) -5
  specific [3H]DPN binding, normalized to 100%: 4.737 and -0.7945 and 2.618
Mouse KOR [13]; Log [ligand] (M) -5.5
  specific [3H]DPN binding, normalized to 100%: 7.624 and 1.593 and 6.477
Mouse KOR [13]; Log [ligand] (M) -6
  specific [3H]DPN binding, normalized to 100%: 15.6906 and 8.934 and 15.8979
Mouse KOR [13]; Log [ligand] (M) -6.5
  specific [3H]DPN binding, normalized to 100%: 35.1232 and 21.428 and 37.6169
Mouse KOR [13]; Log [ligand] (M) -7
  specific [3H]DPN binding, normalized to 100%: 55.6281 and 51.2816 and 59.6036
Mouse KOR [13]; Log [ligand] (M) -7.5
  specific [3H]DPN binding, normalized to 100%: 78.1171 and 80.8645 and 81.4583
Mouse KOR [13]; Log [ligand] (M) -8
  specific [3H]DPN binding, normalized to 100%: 95.8025 and 95.1499 and 93.7293
Mouse KOR [13]; Log [ligand] (M) -8.5
  specific [3H]DPN binding, normalized to 100%: 97.8462 and 101.481 and 96.8345
Mouse KOR [13]; Log [ligand] (M) -9
  specific [3H]DPN binding, normalized to 100%: 98.6307 and 97.8789 and 97.5636
Mouse KOR [13]; Log [ligand] (M) -9.5
  specific [3H]DPN binding, normalized to 100%: 100
Mouse KOR [11]
  EC50: 130 nM
Mouse KOR [11]; HEK-293T, read-out: Emax cAMP assay
  Emax: 61%
Human KOR
  EC50: 150 nM
  Emax: 22%
Human KOR; Log [ligand] (M) -5
  stimulation of [35S]GTPγS binding, normalized: 26.3 and 15.7 and 17.2
Human KOR; Log [ligand] (M) -6
  stimulation of [35S]GTPγS binding, normalized: 26.7 and 25.9 and 13
Human KOR; Log [ligand] (M) -6.5
  stimulation of [35S]GTPγS binding, normalized: 25.5 and 13.8
Human KOR; Log [ligand] (M) -7
  stimulation of [35S]GTPγS binding, normalized: 15.4 and 11.8 and 3.2
Human KOR; Log [ligand] (M) -7.5
  stimulation of [35S]GTPγS binding, normalized: 4.1
Human KOR; Log [ligand] (M) -8
  stimulation of [35S]GTPγS binding, normalized: 17.5 and 5.8 and 1.8
Human KOR; Log [ligand] (M) -8.5
  stimulation of [35S]GTPγS binding, normalized: 4
Human KOR; Log [ligand] (M) -9
  stimulation of [35S]GTPγS binding, normalized: 20.6 and 20.7 and 0
Human KOR; Log [ligand] (M) -10
  stimulation of [35S]GTPγS binding, normalized: 8.5 and 3.1 and 0.3
Human KOR; Log [ligand] (M) -11
  stimulation of [35S]GTPγS binding, normalized: 8.8 and 6 and 1
Human KOR; Log [ligand] (M) -12
  stimulation of [35S]GTPγS binding, normalized: 2
Mouse KOR [12]
  EC50: 15 nM
  β-arrestin-3 (Figure 3j): 50.66
Mouse KOR [12]; HEK-293T, read-out: Emax β-arrestin-2 recruitment
  Emax: 51%
Mouse KOR [12]; Log [ligand] (M) -5
  β-arrestin-2 recruitment, normalized: 75.0642 and 33.7213 and 53.9146
Mouse KOR [12]; Log [ligand] (M) -6
  β-arrestin-2 recruitment, normalized: 47.1252 and 26.1295 and 56.8071
Mouse KOR [12]; Log [ligand] (M) -7
  β-arrestin-2 recruitment, normalized: 55.6969 and 39.8004 and 43.7179
Mouse KOR [12]; Log [ligand] (M) -8
  β-arrestin-2 recruitment, normalized: 23.8448 and 3.34 and 20.2841
Mouse KOR [12]; Log [ligand] (M) -9
  β-arrestin-2 recruitment, normalized: 18.9925 and 16.6241
Mouse KOR [12]; Log [ligand] (M) -10
  β-arrestin-2 recruitment, normalized: 9.149 and -15.1009 and 26.0906
